Experimental data taken from article PMC12457599, “Targeting Acinetobacter baumannii lipase by coniferous species through metabolomics supported approach” (Scientific Reports, 2025).

Assays:
[1] = system: Staphylococcus aureus lipases; set-up: method as in PMID 17559400; conditions: cited from earlier work
[2] = system: A. baumannii strain (AB5075); assay: Tetrazolium/formazan (TTC) assay, effective inhibitory concentration; format: cell-based, Acinetobacter baumannii
A. baumannii (AB5075) = assay: Growth curve assay
[3] = system: A. baumannii strain (AB5075); assay: Broth microdilution MIC; conditions: Acinetobacter baumannii, 24 h

MIC [3] | SMILES | IC50 [1] | EIC ([2]; TTC assay, lowest concentration preventing red color formation, tested 420–640 µg/mL) | direct antimicrobial activity against A. baumannii ([2]; summary of MIC and EIC) | growth extent versus DMSO (A. baumannii (AB5075); 64 µg/mL) | growth extent versus DMSO (A. baumannii (AB5075); 128 µg/mL, mid-logarithmic and early stationary phases)
 | CC(C)=CCC/C(C)=C/CC/C(C)=C/CO [Farnesol] | 570 µM |  |  |  | 
> 128 µg/mL | CCCCCCCCCCC[C@@H](C[C@@H]1OC(=O)[C@H]1CCCCCC)OC(=O)[C@H](CC(C)C)NC=O [Orlistat, orlistat] |  | 640 µg/mL | minimal direct antimicrobial activity | not | significant reduction in growth extent
